Measured values reported in PubChem BioAssay AID330 (DTP/NCI, 2004).
“And” between values parts separate entries of the source, which are not always exact repeats. Equal values may be shown once. Inconclusive results and toxic doses are left out. The calls were made as follows: active = survival T/C of 150% or more; inactive = T/C below 125% in these data.

Test system: P388 leukemia ip, CD2F1 mice, survival T/C
Assay: NCI In Vivo Anticancer Drug Screen. Data for tumor model P388 Leukemia (intraperitoneal) in CD2F1 (CDF1) mice
Settings: endpoint: median survival time, higher = longer survival
How it was run: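 Mice carrying the transplanted tumor received test compound or vehicle. Survival was recorded in each group, and the value is the treated-group measurement divided by that of the vehicle-treated control group.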

[1] = dose: 25.0 mg/kg/injection, schedule: Q01DX005 (ip), vehicle: saline with Tween-80
[2] = dose: 50.0 mg/kg/injection, schedule: Q01DX005 (ip), vehicle: saline with Tween-80
[3] = dose: 100.0 mg/kg/injection, schedule: Q01DX005 (ip), vehicle: saline with Tween-80
[4] = dose: 200.0 mg/kg/injection, schedule: Q01DX005 (ip), vehicle: saline with Tween-80
[5] = dose: 50.0 mg/kg/injection, schedule: Q01DX005 (ip), vehicle: Klucel (hydroxypropylcellulose) (HPC)
[6] = dose: 100.0 mg/kg/injection, schedule: Q01DX005 (ip), vehicle: Klucel (hydroxypropylcellulose) (HPC)
[7] = dose: 200.0 mg/kg/injection, schedule: Q01DX005 (ip), vehicle: Klucel (hydroxypropylcellulose) (HPC)
[8] = dose: 60.0 mg/kg/injection, schedule: Q01DX005 (ip), vehicle: saline with Tween-80
[9] = dose: 240.0 mg/kg/injection, schedule: Q01DX005 (ip), vehicle: saline with Tween-80
[10] = dose: 50.0 mg/kg/injection, schedule: Q01DX009 (ip), vehicle: saline with Tween-80
[11] = dose: 100.0 mg/kg/injection, schedule: Q01DX009 (ip), vehicle: saline with Tween-80
[12] = dose: 200.0 mg/kg/injection, schedule: Q01DX009 (ip), vehicle: saline with Tween-80
[13] = dose: 100.0 mg/kg/injection, schedule: Q01DX001 (ip), vehicle: saline
[14] = dose: 200.0 mg/kg/injection, schedule: Q01DX001 (ip), vehicle: saline
[15] = dose: 400.0 mg/kg/injection, schedule: Q01DX001 (ip), vehicle: saline
[16] = dose: 25.0 mg/kg/injection, schedule: Q01DX009 (ip), vehicle: saline with Tween-80

Measured: T/C

CCOC(=O)C1CCCC(=O)C1Cc1cccc(OC)c1 (centres undefined)
inactive: dose: 50.0 mg/kg/injection, schedule: Q01DX009 (ip), vehicle: other 100 % of control | dose: 100.0 mg/kg/injection, schedule: Q01DX009 (ip), vehicle: other 106 % of control | dose: 200.0 mg/kg/injection, schedule: Q01DX009 (ip), vehicle: other 100 % of control

CC(=O)NCCc1nc(-c2nc(C(=O)NCCC[S+](C)C)cs2)cs1
inactive: dose: 1.56 mg/kg/injection, schedule: Q01DX005 (ip), vehicle: saline with Tween-80 107 % of control | dose: 3.13 mg/kg/injection, schedule: Q01DX005 (ip), vehicle: saline with Tween-80 107 % of control | dose: 6.25 mg/kg/injection, schedule: Q01DX005 (ip), vehicle: saline with Tween-80 100 % of control and 105 % of control | [1] 96 % of control

CCOc1cc2c(cc1C(C)c1ccc(OC(C)C)cc1)OCO2 (centres undefined)
inactive: [1] 108 % of control | [2] 106 % of control | [3] 103 % of control | [4] 103 % of control

c1nc(N2CCOCC2)c2[nH]cnc2n1
inactive: [5] 99 % of control and 91 % of control | [6] 88 % of control | [7] 91 % of control

Cn1cnc2c(F)ncnc21
inactive: [5] 100 % of control | [6] 101 % of control

Cn1c(=O)c2[nH]c(C3COCCO3)nc2n(C)c1=O (centres undefined)
inactive: [8] 91 % of control | [9] 87 % of control

CCc1[nH]c(=O)nc(N)c1-c1ccc(N2CCCCC2)c([N+](=O)[O-])c1
inactive: [8] 93 % of control | dose: 120.0 mg/kg/injection, schedule: Q01DX005 (ip), vehicle: saline with Tween-80 96 % of control | [9] 97 % of control

O=C(O)CCCOC(C[N+](=O)[O-])C(Cl)(Cl)Cl (centres undefined)
inactive: [10] 95 % of control | [11] 100 % of control | [12] 96 % of control

C[CH2][Sn]([CH2]C)([n]1cnc2ccccc21)[n]1cnc2ccccc21
inactive: dose: 1.56 mg/kg/injection, schedule: Q01DX005 (ip), vehicle: Klucel (hydroxypropylcellulose) (HPC) 120 % of control | dose: 3.12 mg/kg/injection, schedule: Q01DX005 (ip), vehicle: Klucel (hydroxypropylcellulose) (HPC) 123 % of control | dose: 6.25 mg/kg/injection, schedule: Q01DX005 (ip), vehicle: Klucel (hydroxypropylcellulose) (HPC) 109 % of control and 122 % of control

COC1N(C2CC(O)C(CO)O2)C(=O)NC(=O)C1(F)Br (centres undefined)
inactive: dose: 178.0 mg/kg/injection, schedule: Q04DX003 (ip), vehicle: saline 118 % of control

Nc1ncnc2c1nc([Se])n2C1OC(CO)C(O)C1O (centres undefined)
inactive: dose: 25.0 mg/kg/injection, schedule: Q01DX005 (ip), vehicle: other 97 % of control | dose: 100.0 mg/kg/injection, schedule: Q01DX005 (ip), vehicle: other 97 % of control | dose: 200.0 mg/kg/injection, schedule: Q01DX005 (ip), vehicle: other 86 % of control | dose: 400.0 mg/kg/injection, schedule: Q01DX005 (ip), vehicle: other 105 % of control

C/C(=N\NC(N)=S)c1ccccc1
inactive: dose: 3.12 mg/kg/injection, schedule: Q01DX009 (ip), vehicle: Klucel (hydroxypropylcellulose) (HPC) 106 % of control | dose: 6.25 mg/kg/injection, schedule: Q01DX009 (ip), vehicle: Klucel (hydroxypropylcellulose) (HPC) 111 % of control | dose: 12.5 mg/kg/injection, schedule: Q01DX009 (ip), vehicle: Klucel (hydroxypropylcellulose) (HPC) 114 % of control

O=C(NC(=O)c1cccc2ccccc12)NC(=S)c1cccc2ccccc12
inactive: [13] 103 % of control and 96 % of control | [14] 109 % of control and 95 % of control | [15] 101 % of control and 87 % of control

CC(Cc1ccc(O)cc1)NCC(O)c1ccc(O)c(O)c1 (centres undefined)
inactive: [10] 104 % of control | [11] 109 % of control

OCC1OC(O)C2OCCOCCOC3C(O)C(CO)OC(O)C3OCCOCCOC2C1O (centres undefined)
inactive: dose: 60.0 mg/kg/injection, schedule: Q01DX005 (ip), vehicle: saline 101 % of control | dose: 120.0 mg/kg/injection, schedule: Q01DX005 (ip), vehicle: saline 95 % of control | dose: 240.0 mg/kg/injection, schedule: Q01DX005 (ip), vehicle: saline 97 % of control

CCCCCC[N+]1(CC)CCCCC1
inactive: dose: 6.25 mg/kg/injection, schedule: Q01DX009 (ip), vehicle: saline 107 % of control | dose: 12.5 mg/kg/injection, schedule: Q01DX009 (ip), vehicle: saline 105 % of control | dose: 25.0 mg/kg/injection, schedule: Q01DX009 (ip), vehicle: saline 107 % of control

N#CNC(=O)c1cccnc1
inactive: dose: 50.0 mg/kg/injection, schedule: Q01DX009 (ip), vehicle: saline 99 % of control | dose: 100.0 mg/kg/injection, schedule: Q01DX009 (ip), vehicle: saline 94 % of control | dose: 200.0 mg/kg/injection, schedule: Q01DX009 (ip), vehicle: saline 99 % of control

O=P(O)(O)Oc1ccc(NCCO)cc1
inactive: dose: 50.0 mg/kg/injection, schedule: Q01DX001 (ip), vehicle: saline 107 % of control | [13] 99 % of control | [14] 100 % of control | [15] 100 % of control

Nc1nc(=O)[nH]c([O-])c1N=O.Nc1nc(=O)[nH]c([O-])c1N=O.[Ag+].[Ag+]
inactive: dose: 15.0 mg/kg/injection, schedule: Q01DX005 (ip), vehicle: saline with Tween-80 104 % of control and 86 % of control | dose: 30.0 mg/kg/injection, schedule: Q01DX005 (ip), vehicle: saline with Tween-80 105 % of control and 89 % of control

NNc1cccc(C(F)(F)F)c1
inactive: dose: 12.5 mg/kg/injection, schedule: Q01DX009 (ip), vehicle: saline with Tween-80 100 % of control | [16] 90 % of control | dose: 25.0 mg/kg/injection, schedule: Q04DX003 (ip), vehicle: saline with Tween-80 100 % of control | [10] 95 % of control | dose: 50.0 mg/kg/injection, schedule: Q04DX003 (ip), vehicle: saline with Tween-80 105 % of control | dose: 100.0 mg/kg/injection, schedule: Q04DX003 (ip), vehicle: saline with Tween-80 100 % of control

COC(=O)CC1(C(=O)OC)Oc2ccc(Br)cc2C(=O)N1c1ccc(Br)cc1Cl (centres undefined)
inactive: [2] 96 % of control | [3] 96 % of control | [4] 91 % of control

O=C(/C=N/Nc1ccccc1)Nc1ccccc1C(=O)O
inactive: [5] 102 % of control | [6] 105 % of control | [7] 93 % of control

C=C1CCC2(O)C(=C)C(=O)OC2C2C(=C)CCC12 (centres undefined)
inactive: dose: 4.0 mg/kg/injection, schedule: Q01DX009 (ip), vehicle: Klucel (hydroxypropylcellulose) (HPC) 96 % of control | dose: 8.0 mg/kg/injection, schedule: Q01DX009 (ip), vehicle: Klucel (hydroxypropylcellulose) (HPC) 100 % of control | dose: 16.0 mg/kg/injection, schedule: Q01DX009 (ip), vehicle: Klucel (hydroxypropylcellulose) (HPC) 102 % of control | dose: 32.0 mg/kg/injection, schedule: Q01DX009 (ip), vehicle: Klucel (hydroxypropylcellulose) (HPC) 110 % of control

COc1ccc(OC)c2c(=O)cc(C)[nH]c12
inactive: dose: 16.5 mg/kg/injection, schedule: Q01DX009 (ip), vehicle: saline with Tween-80 107 % of control and 112 % of control | [16] 107 % of control and 111 % of control and 121 % of control | dose: 37.5 mg/kg/injection, schedule: Q01DX009 (ip), vehicle: saline with Tween-80 113 % of control and 124 % of control | [10] 114 % of control | [11] 107 % of control | [12] 107 % of control

CC(=O)NNc1ccc(Cl)cc1[N+](=O)[O-]
inactive: dose: 50.0 mg/kg/injection, schedule: Q01DX009 (ip), vehicle: Klucel (hydroxypropylcellulose) (HPC) 96 % of control | dose: 100.0 mg/kg/injection, schedule: Q01DX009 (ip), vehicle: Klucel (hydroxypropylcellulose) (HPC) 101 % of control

O=C(O)C1=C(C(=O)Nc2ccc(NC(=O)C3=C(C(=O)O)CCC3)cc2)CCC1
inactive: dose: 12.5 mg/kg/injection, schedule: Q01DX009 (ip), vehicle: distilled water + Tween-80 93 % of control | dose: 25.0 mg/kg/injection, schedule: Q01DX009 (ip), vehicle: distilled water + Tween-80 98 % of control | dose: 50.0 mg/kg/injection, schedule: Q01DX009 (ip), vehicle: distilled water + Tween-80 97 % of control | dose: 100.0 mg/kg/injection, schedule: Q01DX009 (ip), vehicle: distilled water + Tween-80 105 % of control | dose: 200.0 mg/kg/injection, schedule: Q01DX009 (ip), vehicle: distilled water + Tween-80 115 % of control
